This is an account of results in PubChem BioAssay (NCI).

Some test systems named below: EKVX NSCLC; HCC-2998 colon; LOX IMVI melanoma; NCI-H23 lung; NCI-H460 lung; SK-MEL-2 melanoma; SW-620 colon; T-47D breast; U251 CNS; RXF 393 renal.
Common to all, as to assay: DTP human tumour cell line panel, 48 h

SMILES strings stand for the structures.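 Tested at 5 concentrations; 48 h exposure; 96-well plates; endpoints linearly interpolated, else capped at highest concentration. GI50 marks 50% less growth. At the TGI there is no net growth.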

In the case of `O=C(CNC(=O)c1cccc2ccccc12)Nc1ccccc1Oc1ccccc1`, the GI50 with EKVX NSCLC is 0.778 µM; with HCC-2998 colon, 0.712 µM; in the experiment on LOX IMVI melanoma it was 0.307 µM; in the experiment on NCI-H23 lung, 0.658 µM; in the experiment with NCI-H460 lung, 0.333 µM; in the experiment on SK-MEL-2 melanoma, 0.272 µM. For the same compound, the GI50 with SW-620 colon was 0.283 µM; in the experiment with T-47D breast it was 0.542 µM; in the experiment with U251 CNS, 0.328 µM. Besides, the total growth inhibition concentration (TGI) in the experiment with EKVX NSCLC, in the experiment with HCC-2998 colon, in the experiment on LOX IMVI melanoma, in the experiment with NCI-H23 lung, with NCI-H460 lung and in the experiment on SK-MEL-2 melanoma was more than 10 µM in each case. Further, the total growth inhibition concentration (TGI) in the experiment with SW-620 colon, in the experiment with T-47D breast and with U251 CNS was more than 10 µM in each case.
Take `Cc1cc(N/N=C/c2nc(-c3ccccc3)oc2C)c2cc(Cl)ccc2n1`: the GI50 in the experiment on EKVX NSCLC is 1.99 µM; in the experiment on HCC-2998 colon it was 1.73 µM; in the experiment on NCI-H23 lung it was 1.7 µM; with NCI-H460 lung, 1.88 µM; in the experiment on RXF 393 renal, 1.7 µM; with SK-MEL-2 melanoma it was 18.7 µM. The figures for the GI50 with SW-620 colon, in the experiment on T-47D breast and with U251 CNS were 1.81 µM, 2.02 µM and 1.78 µM, respectively. Further, the total growth inhibition concentration (TGI) was determined as 4.53 µM in the experiment on EKVX NSCLC; 3.23 µM in the experiment on HCC-2998 colon; 3.61 µM in the experiment on NCI-H23 lung; 3.61 µM in the experiment with NCI-H460 lung; 3.42 µM in the experiment with RXF 393 renal; 38.7 µM in the experiment on SK-MEL-2 melanoma. Besides, the results for the total growth inhibition concentration (TGI) in the experiment with SW-620 colon, in the experiment with T-47D breast and in the experiment on U251 CNS were 3.7 µM, 4.22 µM and 3.34 µM, respectively.
In the case of `CCc1oc2ccccc2c1C(=O)c1cc(Br)c(O)c(Br)c1`, the total growth inhibition concentration (TGI) in the experiment with EKVX NSCLC came to 95.2 µM; in the experiment on LOX IMVI melanoma, 55.3 µM; with NCI-H23 lung, 54.8 µM; with NCI-H460 lung, 34.2 µM; in the experiment on RXF 393 renal, 35 µM; with SK-MEL-2 melanoma, 45.3 µM. Besides, the concentration for total growth inhibition (TGI) was more than 100 µM in the experiment on SW-620 colon, 53.6 µM with T-47D breast and 31 µM with U251 CNS.
Turning to `COc1cc(-c2cc(-c3nc4ccccc4[nH]3)[nH]n2)cc(OC)c1OC`, the GI50 with HCC-2998 colon is 7.1 µM; in the experiment with NCI-H23 lung it was 2.26 µM; in the experiment on NCI-H460 lung, 3.64 µM; with RXF 393 renal it was 1.77 µM; in the experiment with SW-620 colon, 7.73 µM; in the experiment with T-47D breast, 1.11 µM. The GI50 in the experiment with U251 CNS is 3.73 µM. Besides, the TGI with HCC-2998 colon came to 21.5 µM; in the experiment with NCI-H23 lung, 14.4 µM; in the experiment on NCI-H460 lung, 21.5 µM; in the experiment with RXF 393 renal, 11.4 µM; in the experiment on SW-620 colon, 30.3 µM; in the experiment with T-47D breast, 7.61 µM. In the experiment with U251 CNS, this compound came in with a total growth inhibition concentration (TGI) of 32.6 µM.
Turning to `N#CC(C#N)=CN1CCN(C(=O)c2ccccc2)C1=S`, the GI50 in the experiment with EKVX NSCLC was 3.48 µM; in the experiment on LOX IMVI melanoma, more than 100 µM; in the experiment with NCI-H23 lung it was 26.1 µM; in the experiment on NCI-H460 lung, 20 µM; with RXF 393 renal, 22.7 µM; with SK-MEL-2 melanoma, 18.4 µM. Moreover, the GI50 in the experiment on SW-620 colon is 33.7 µM; in the experiment with T-47D breast, 89.2 µM; in the experiment with U251 CNS, 38.2 µM. In addition, the TGI in the experiment on EKVX NSCLC is 11.4 µM; in the experiment on LOX IMVI melanoma, more than 100 µM; in the experiment on NCI-H23 lung, 60.1 µM; with NCI-H460 lung it was 66.5 µM; with RXF 393 renal, 70.7 µM; with SK-MEL-2 melanoma, 68.4 µM. Moreover, the concentration for total growth inhibition (TGI) in the experiment with SW-620 colon, in the experiment on T-47D breast and in the experiment with U251 CNS was more than 100 µM throughout.
Consider `CCOC(=O)C#Cc1ccc(C#CC(=O)OCC)cc1`, for which the TGI with EKVX NSCLC was more than 24.7 µM; in the experiment on LOX IMVI melanoma, more than 22.1 µM; with NCI-H23 lung, more than 30 µM; in the experiment on NCI-H460 lung, more than 46.8 µM; in the experiment with RXF 393 renal, 16.6 µM; with SW-620 colon, more than 27.4 µM. The concentration for total growth inhibition (TGI) in the experiment on T-47D breast is more than 100 µM.
For the compound `Cc1cc2c(c(C#N)c1C)NC(=O)C(CC(=O)O)C2=O` (stereo not given), the TGI in the experiment on EKVX NSCLC, in the experiment with HCC-2998 colon, in the experiment on LOX IMVI melanoma, in the experiment on NCI-H23 lung, with NCI-H460 lung and in the experiment on RXF 393 renal was more than 100 µM in each case. Moreover, the TGI in the experiment on SK-MEL-2 melanoma, in the experiment on SW-620 colon and in the experiment with U251 CNS was more than 100 µM each time.
On to `Cc1cccc(C)c1NC(=O)C(=O)CC(=O)CO`, for which the TGI in the experiment with EKVX NSCLC, in the experiment on HCC-2998 colon, in the experiment with LOX IMVI melanoma, with NCI-H23 lung, in the experiment with NCI-H460 lung and with RXF 393 renal was more than 100 µM each time. For the same compound, the total growth inhibition concentration (TGI) in the experiment on SK-MEL-2 melanoma, in the experiment on SW-620 colon and in the experiment on U251 CNS was more than 100 µM each time.
Consider `O=C(c1ccc(NCN2C(=O)CCC2=O)cc1)c1ccc(NCN2C(=O)CCC2=O)cc1`, for which the TGI in the experiment on EKVX NSCLC, in the experiment on HCC-2998 colon, in the experiment on LOX IMVI melanoma, in the experiment on NCI-H23 lung, with NCI-H460 lung and in the experiment with RXF 393 renal was more than 100 µM each time. The TGI in the experiment on SK-MEL-2 melanoma, with SW-620 colon and in the experiment with U251 CNS was more than 100 µM each time.
With `C=CCN=C1N=C(CC(=O)OCC)CS1`, the TGI in the experiment on EKVX NSCLC, in the experiment with HCC-2998 colon, with LOX IMVI melanoma, in the experiment on NCI-H23 lung, in the experiment with NCI-H460 lung and in the experiment with RXF 393 renal was more than 100 µM throughout. In addition, the TGI in the experiment on SK-MEL-2 melanoma, in the experiment on SW-620 colon and in the experiment on U251 CNS was more than 100 µM in each case.
Regarding `Cc1ccc(C2=Nc3ccccc3NC(=O)C2)cc1`, the total growth inhibition concentration (TGI) with EKVX NSCLC, in the experiment on HCC-2998 colon, with LOX IMVI melanoma, in the experiment with NCI-H23 lung, with NCI-H460 lung and in the experiment on RXF 393 renal was more than 100 µM each time. Besides, the concentration for total growth inhibition (TGI) in the experiment on SK-MEL-2 melanoma, with SW-620 colon and in the experiment on U251 CNS was more than 100 µM throughout.
For `Cc1nc(NC(=S)Nc2ccc(F)cc2)sc1C(=O)NNC(=S)Nc1ccc(F)cc1`, the GI50 was 4.61 µM in the experiment with EKVX NSCLC; 6.6 µM in the experiment on HCC-2998 colon; 2.78 µM with NCI-H23 lung; 3.85 µM in the experiment with NCI-H460 lung; 19.4 µM in the experiment with SK-MEL-2 melanoma; 10.6 µM in the experiment on SW-620 colon. The GI50 with T-47D breast is 2.59 µM. In addition, the TGI in the experiment on EKVX NSCLC was more than 100 µM; in the experiment on HCC-2998 colon, 22.5 µM; in the experiment with NCI-H23 lung, 9.73 µM; in the experiment on NCI-H460 lung, 16.2 µM; with SK-MEL-2 melanoma, 60.3 µM; in the experiment with SW-620 colon it was 25.2 µM. The TGI with T-47D breast was determined as 20.7 µM.
Regarding `NC1CCC[C@@H](O)[C@H]1O` (stereo not given in full), the concentration for total growth inhibition (TGI) with EKVX NSCLC, in the experiment on HCC-2998 colon, in the experiment on LOX IMVI melanoma, in the experiment with NCI-H23 lung, in the experiment with NCI-H460 lung and with SK-MEL-2 melanoma was more than 100 µM throughout. Further, the TGI with SW-620 colon, in the experiment on T-47D breast and in the experiment on U251 CNS was more than 100 µM in each case.
Turning to `Cl.Fc1c[c-]c(-c2ccccn2)c(F)c1.[Pt].c1ccc([PH+](CC[PH+](c2ccccc2)c2ccccc2)c2ccccc2)cc1`, the GI50 is 0.214 µM with RXF 393 renal, 0.233 µM in the experiment on SK-MEL-2 melanoma, 0.0912 µM with T-47D breast and 0.0319 µM with U251 CNS. Also, the total growth inhibition concentration (TGI) in the experiment on RXF 393 renal was determined as 0.997 µM; with SK-MEL-2 melanoma it was 0.756 µM; in the experiment on T-47D breast, 1.39 µM; with U251 CNS it was 1.13 µM.
As for `Cn1c2ccc([N+](=O)[O-])cc2c(=O)c2c(O)cc(O)cc21`, the TGI in the experiment with EKVX NSCLC is more than 100 µM; in the experiment with HCC-2998 colon, more than 100 µM; in the experiment on LOX IMVI melanoma it was more than 100 µM; in the experiment on NCI-H460 lung, more than 100 µM; with RXF 393 renal it was 52 µM; in the experiment with SW-620 colon it was more than 100 µM. In addition, the concentration for total growth inhibition (TGI) in the experiment on T-47D breast is more than 100 µM; in the experiment on U251 CNS it was 37.3 µM.
`Nc1ncc(-c2ccc(C(F)(F)F)cc2)c(NC2CCCCCC2)n1`: the GI50 with HCC-2998 colon was 48.5 µM; with NCI-H23 lung, 20 µM; in the experiment with NCI-H460 lung it was 42.7 µM; with RXF 393 renal, 16.1 µM; with SW-620 colon, 39.3 µM; in the experiment on T-47D breast, 18.3 µM. The GI50 in the experiment with U251 CNS was 20.8 µM. Moreover, the total growth inhibition concentration (TGI) with HCC-2998 colon was more than 100 µM; in the experiment on NCI-H23 lung, more than 100 µM; with NCI-H460 lung, more than 100 µM; with RXF 393 renal, 88 µM; in the experiment with SW-620 colon, more than 100 µM; in the experiment with T-47D breast it was more than 100 µM. The same compound returned a TGI in the experiment on U251 CNS of 88.9 µM.
Regarding `COc1ccc(/C=C(\C#N)c2cc(OC)c3c(c2)OCO3)cc1`, the GI50 in the experiment on EKVX NSCLC was 1.98 µM; with HCC-2998 colon, 0.0264 µM; in the experiment on LOX IMVI melanoma, 0.0271 µM; in the experiment on NCI-H23 lung, less than 0.0143 µM; in the experiment with NCI-H460 lung it was less than 0.01 µM; with RXF 393 renal it was less than 0.01 µM. The GI50 with SK-MEL-2 melanoma was less than 0.017 µM; in the experiment with SW-620 colon, less than 0.01 µM; with U251 CNS it was less than 0.0179 µM. The TGI in the experiment on EKVX NSCLC was more than 100 µM; in the experiment with HCC-2998 colon it was 1.41 µM; with LOX IMVI melanoma it was more than 100 µM; in the experiment with NCI-H23 lung, 24.3 µM; in the experiment on NCI-H460 lung, 4.28 µM; in the experiment with RXF 393 renal, 30.6 µM. The concentration for total growth inhibition (TGI) was 2.81 µM with SK-MEL-2 melanoma, more than 100 µM in the experiment on SW-620 colon and 69.9 µM in the experiment with U251 CNS.
